Data taken from patent US11229662B2, “Compositions and methods for the treatment of aberrant angiogenesis” (The Schepens Eye Research Institute, Inc., priority 2016, dated 2022).
Entries after “also recorded” stand apart in the source; their conditions may differ.

What was measured:
HRMEC [1] = test: Ki67 proliferation assay; assay type: cell-based, human
Method: FVMs and cells were incubated with mouse anti-RUNX1 (Santa Cruz) followed by biotinylated secondary antibody (Vector Laboratories), horseradish peroxidase (HRP)-labeled avidin (PerkinElmer), tyramide signal amplification (TSA, PerkinElmer), Vector Red chromogenic substrate (Vector Laboratories) and Gill no. 3 hematoxylin counterstain (Sigma-Aldrich). Immunofluorescent staining for CD31 (mouse anti-CD31; Dako) and Ki67 (rabbit anti-Ki67; Novus Biologicals) was performed as previously described (Kim L A, et al. (2015) Mol Vis 21:673-687). The number of Ki67 positive nuclei was averaged for three fields of view per sample at 20× magnification.
HRMEC were probed for proliferation with the Ki67 marker as follows: cells were permeabilized with 0.5% Triton X-100 in PBS for 5 min, blocked with 5% goat serum in PBS for 2 h at room temperature, incubated with primary antibody overnight at 4° C. (rabbit anti-Ki67 1:50; Novus Biologicals), and incubated with secondary for 2 h at room temperature (goat anti-rabbit Alexa Fluor 594 1:250; Life Technologies Corp.). Samples were imaged using an EVOS® imaging system. The number of Ki67 positive nuclei was averaged for three fields of view per sample at 20× magnification.

HES1 = test: qRT-PCR of HES1 expression; assay type: cell-based, human; settings: 100 nM; 72 hours; 5 mM and 30 mM D-glucose; vs DMSO
Method: FIG. 18 is a graph showing that gamma-secretase inhibition using Compound E small molecule (100 nM) reduced the expression of HES1, a canonical downstream target for Notch activity and RUNX1 in primary culture human microvascular endothelial cells. Reduction of HES1 and RUNX1 expression was effective under normal glucose (5 mM D-glucose and high glucose 30 mM D-glucose). Cells were incubated with Compound E or DMSO vehicle control in different glucose concentrations for 72 hours before harvest followed by qRT-PCR for each gene. HPRT1 expression was used as control.
(§1) RNA was extracted using RNeasy Mini Kits (Qiagen). Primers were purchased from Integrated DNA Technologies for 200 candidate genes (Table 4). Genes were excluded from further analysis if there was no amplification or amplification was outside the linear range. […] Fluorescent intensities were normalized to spike-in controls (ERCC RNA Spike-In Mix; Life Technologies), HPRT1, and B2M.

RUNX1 protein = test: Western blot of RUNX1 protein; assay type: cell-based, human; settings: 72 hours
Method: FIG. 13 is an image showing that a commercially available small molecule PIM3 inhibitor (PIM3 kinase inhibitor VII from EMD Millipore) reduced total RUNX1 protein levels in primary culture retinal endothelial cells in normal and high glucose conditions. Human microvascular retinal endothelial cells were cultured in EGM-2 supplemented with different concentrations of D-glucose for 72 hours in the presence of PIM3 inhibitor (PIM3 kinase inhibitor VII from EMD Millipore, Cat No. 526526, 0.05 μM) or vehicle (DMSO). After harvest, proteins were extracted using RIPA buffer and analyzed by western blot. RUNX1 was detected using antibodies from Santacruz (sc-365644). β-actin was used as a loading control.
FIG. 19 is set of images showing that gamma-secretase inhibition using Compound E small molecule (100 nM) reduces the expression of RUNX1 in primary culture human microvascular endothelial cells. […]
Western Blot Analysis: Cells were lysed using RIPA buffer (Cell Signaling Technology (CST)). […] Immunoreactive bands were visualized using the Odyssey Infrared Imaging System and band intensities normalized to β-actin were quantified using Image Studio version 2.1 (LI-COR).

RUNX1 = test: qRT-PCR of RUNX1 expression; assay type: cell-based, human
Method: (§2) FVMs were collected and CD31+ cells were isolated as previously described [Kim L A, et al. (2015) Mol Vis 21:673-687]. RNA-sequencing was performed using an Illumina HiSeq 2000 (Illumina Inc.), aligned with TopHat (Trapnell et al. (2009) Bioinformatics 25(9):1105-1111], and analyzed using Partek Flow, CuffLinks, EdgeR, and DESeq2. A mixed model ANOVA was used with a threshold false discovery rate (FDR) of <0.05 and fold change >±2 for significance. Gene Ontology was determined using the Database for Annotation, Visualization, and Integrated Discovery (DAVID). […] FVMs and cells were immunostained with standard protocols for paraffin embedded samples.
(§3) siRNA ([…]) (Integrated DNA Technologies; sequences in Table 4) was transfected for 6-8 h using DharmaFECT 1 (GE Life Sciences—Dharmacon) in Opti-MEM (Life Technologies).
as §1

C57BL/6J mice with OIR = test: Oxygen-induced retinopathy (OIR) mouse model, retinal flat mounts; assay type: in vivo; settings: P17
Method: OIR was induced in wild-type C57BL/6J mice as previously described (Smith L E et al., (1994) Invest Ophthalmol Vis Sci 35(1):101-111). Intravitreal injections with 1 μL of 75 μM Ro5-3335 RUNX1 inhibitor or DMSO were performed on left eyes only at P13 and P15 under ketamine/xylazine anesthesia. Pups were euthanized at P17 and eyes were collected, fixed in 4% paraformaldehyde, and used for retinal flat mounts (nvehicle=7; nRo5-3335=9). Avascular and neovascular areas were quantified using Photoshop as previously described (Connor H M et al., (2009) Nature Protocols 4(11):1565-1573).

HRMEC [2] = test: Tube forming assay; assay type: cell-based, human
Method: HRMEC were treated overnight with 75 μM Ro5-3335 or DMSO before plating 20000 cells onto wells pre-coated with basement membrane extract (Trevigen). Cells were imaged six h after plating and tube formation was quantified using the Angiogenesis Analyzer plugin for ImageJ.

[3] = HIV treatment trial, Haubrich et al. (1995); cited from earlier work
HRMEC [4] = test: Scratch-wound migration assay; assay type: cell-based, human; settings: for wound closure (scratch assay): siRNA knockdown of RUNX1, 0-12 h
Method: as §2
Migration was assessed with the scratch-wound assay (Liang C C et al. (2007) Nature Protocols 2(2):329-333). One scratch was generated per well and imaged on an EVOS® imaging system every three hours for 12 h. Images were analyzed with the TScratch Matlab module (Geback et al. (2009) Biotechniques 46(4):265-274).

RUNX3 = test: qRT-PCR of RUNX3 expression; assay type: cell-based, human; settings: RUNX1 siRNA; 48 hours post-transfection
Method: as §3, §1

RUNX2 = test: qRT-PCR of RUNX2 expression; assay type: cell-based, human; settings: RUNX1 siRNA; 48 hours post-transfection
Method: as §3, §1

IGFBP3 = test: qRT-PCR of IGFBP3 expression; assay type: cell-based, human; settings: RUNX1 siRNA knockdown
Method: as §3, §1
HRMEC were transfected with pCMV5-AML1c (Addgene Plasmid #12426) (the plasmid contains the sequence of RUNX1 encoding 480 amino acids; in the sequences listed herein this corresponds to RUNX1g) or pCMV5 empty vector using the HCAEC Nucleofector kit (VPB-1001; Program S-005) following manufacturer's optimized protocol.

[5] = intravitreal 75 μM at P13 and P15, vs vehicle
[6] = HRMEC treated overnight with 75 μM Ro5-3335, imaged 6 h after plating, vs DMSO

N[C@@H]1CCCN(c2c(/C=C3\SC(=O)NC3=O)cccc2-c2ccccc2)C1 [AZD1208]
reduction in cell migration (HRMEC [1]; treated 48 hours before proliferation assay, Ki67 marker, vs DMSO control): 43%

C[C@H](NC(=O)Cc1cc(F)cc(F)c1)C(=O)N[C@H]1N=C(c2ccccc2)c2ccccc2N(C)C1=O [Compound E]
HES1 expression (HES1): reduced | RUNX1 expression (western blot) (RUNX1 protein; 100 nM, 5 mM and 30 mM D-glucose): reduces | RUNX1 expression (qRT-PCR) (RUNX1; 100 nM, 72 hours, 5 mM and 30 mM D-glucose, vs DMSO): reduced

CC/C(=N\NC(=O)c1ccnc(NCCCN2CCOCC2)c1)c1ccc(Cl)cc1O [PIM3 kinase inhibitor VII, N′-(1-(4-Chloro-2-hydroxyphenyl)propylidene)-2-((3-morpholinopropyl)amino)isonicotinohydrazide]
total RUNX1 protein levels (RUNX1 protein; 0.05 μM, normal and high glucose, vs DMSO): reduced

O=C1CN=C(c2ccc[nH]2)c2cc(Cl)ccc2N1 [Ro5-3335]
avascular area (extent of vaso-obliteration) (C57BL/6J mice with OIR; [5]): no significant change; also recorded: non-significant downward trend | neovascularization / neovascular tufts (C57BL/6J mice with OIR; [5]): significant reduction | reduction in neovascularization (C57BL/6J mice with OIR; intravitreal 1 μL of 75 μM at P13 and P15, vs vehicle treated eyes): 50% | meshes reduction (HRMEC [2]; [6]): 46% | nodes reduction (HRMEC [2]; [6]): 35% | total tube length reduction (HRMEC [2]; [6]): 18% | tube forming capacity (HRMEC [2]; overnight treatment, 6 h after plating, vs vehicle treated cells): reduced tube forming capacity

CNC1=Nc2ccc(Cl)cc2C(c2ccc[nH]2)=NC1 [Ro24-7429]
safety in clinical trial [3]: safe

RUNX1 siRNA: siRNA against human RUNX1, Integrated DNA Technologies; duplex hs.Ri.RUNX1.13.3 (SEQ ID NO: 247/248) (chain 1 CCUUUCAUGUUAAUCAAACAAGUGA; chain 2 UCACUUGUUUGAUUAACAUGAAAGGGA; listed as RNA, chemistry not fully specified)
decrease in wound closure rate (HRMEC [4]; RUNX1 siRNA knockdown, monitored 12 h, vs controls): 60% | wound closure (scratch assay) (HRMEC [4]): effectively inhibits wound closure | RUNX3 RNA expression (RUNX3): did not significantly affect; also recorded: no significant changes | RUNX2 RNA expression (RUNX2): did not significantly affect; also recorded: no significant changes | increase in IGFBP3 mRNA expression (IGFBP3): 330% | reduction of RUNX1 RNA expression (RUNX1; RUNX1 siRNA, 48 hours post-transfection): 60% | cell number and proliferative capacity (Ki67 staining) (HRMEC [1]; 48 h post transfection, vs transfection reagent alone or scramble siRNA): significant reduction | fewer Ki67 positive cells (HRMEC [1]; RUNX1 siRNA transfected EC vs controls): 60%

siRNA-2: second RUNX1 siRNA; probably duplex HSC.RNAI.N001001890.12.1 (SEQ ID NO: 249/250) (chain 1 ACUAGAUGAUCAGACCAAGCCCGGG; chain 2 CCCGGGCUUGGUCUGAUCAUCUAGUUU; listed as RNA, chemistry not fully specified)
wound closure (scratch assay) (HRMEC [4]): functional inhibition
